These results are taken from ChEMBL document CHEMBL6134778, “Spiro-Azetidine Oxindoles as Long-Acting Injectables for Pre-Exposure Prophylaxis against Respiratory Syncytial Virus Infections” (J Med Chem, 2024).

pEC50: −log10 of the molar value. ≈ marks a conversion by molar mass, not a printed value. Where only a bound is given, the exact number is not on record here.

As usually defined, the clearance is the volume of plasma or blood freed of the substance per unit of time. Read a high clearance as a high capacity for elimination. In general, solubility refers to the dissolved amount per volume that the medium holds. For orientation: pEC50 means the negative decadic logarithm of the EC50, by convention in mol/L.

Data set [1] in a line: Intrinsic clearance in human liver microsomes assessed per mg protein at 1 uM measured after 60 mins in presence of NADPH by LC-MS/MS analysis. It counts as ADME, Microsome. The conditions noted are these: read-out: CLH.
A short description of data set [2]: Bioavailability in Beagle dog assessed as dose released at 20 mg/kg, IM by LC-MS/MS analysis. It counts as ADME, organism-based, Canis lupus familiaris. The conditions noted are these: in vivo.
The nature of data set [3]: Intrinsic clearance in human hepatocytes assessed per million cells at 1 uM measured after 180 mins by LC-MS/MS analysis. It counts as ADME, cell-based, Hepatocyte. The conditions noted are these: read-out: CLH.
The test system of data set [4] is Canis familiaris. Put plainly: Particle size for the 50th percentile of the cumulative volume distribution in Beagle dog at 20 mg/kg, IM […]. It counts as ADME, organism-based, Canis lupus familiaris. The conditions noted are these: in vivo.
Data set [5] in a line: Volume of distribution at steady state in Beagle dog at 0.25 mg/kg, iv by LC-MS/MS analysis. The conditions noted are these: in vivo, read-out: Vdss. The format is ADME, organism-based, Canis lupus familiaris.
The nature of data set [6]: Clearance in Beagle dog at 0.25 mg/kg, iv by LC-MS/MS analysis. The format is ADME, organism-based, Canis lupus familiaris. The conditions noted are these: in vivo.
The subject of data set [7] is Canis familiaris. Put plainly: Release rate constant in Beagle dog at 20 mg/kg, IM by LC-MS/MS analysis. It counts as ADME, organism-based, Canis lupus familiaris. The conditions noted are these: in vivo.
A short description of data set [8]: Bioavailability in Sprague-Dawley rat assessed as dose released at 50 mg/kg, IM measured over 12 weeks by LC-MS/MS analysis. The conditions noted are these: in vivo. The format is ADME, organism-based.
Data set [9] can be described thus: Equilibrium solubility of the compound […] at pH 7 measured after 3 days by LC-MS/MS analysis. It counts as physicochemical. The conditions noted are these: time 3 day.
Data set [10] can be described thus: Clearance in Sprague-Dawley rat at 1 mg/kg, iv by LC-MS/MS analysis. It counts as ADME, organism-based. The conditions noted are these: in vivo.
The nature of data set [11]: Chromatographic hydrophobicity index, logD of the compound at pH 7.4 by UPLC analysis. The conditions noted are these: buffer. It counts as physicochemical.
Data set [12] has as its system Respiratory syncytial virus. Nature of the data set: Antiviral activity against RSV A2 harboring eGFP infected in human HeLa cells assessed as reduction in virus replication measured after 3 days by laser microscopy. The format is functional, organism-based. The conditions noted are these: 72 h.
Data set [13] is described as follows: Volume of distribution at steady state in Sprague-Dawley rat at 1 mg/kg, iv by LC-MS/MS analysis. It counts as ADME, organism-based. The conditions noted are these: in vivo, read-out: Vdss.
A short description of data set [14]: Thermodynamic solubility in aqueous buffer at pH 7 incubated for 24 hrs by UPLC analysis. The format is physicochemical. The conditions noted are these: read-out: Therm_solubility.
For data set [15], the system named is Rattus norvegicus. Nature of the data set: Release rate constant in Sprague-Dawley rat at 50 mg/kg, IM measured over 12 weeks by LC-MS/MS analysis. It counts as ADME, organism-based. The conditions noted are these: in vivo, 2016 h.
Data set [16] deals with Respiratory syncytial virus. Nature of the data set: Antiviral activity against RSV A2 harboring eGFP infected in human HeLa cells assessed as reduction in virus replication by measuring 3X protein-adjusted effective concentration for 90% inhibition measured after 3 days in presence of human serum albumin and alpha(1)-acid glycoprotein by laser microscopy. The conditions noted are these: time 3 day. The format is functional.

In data set [17] the test system is Rattus norvegicus. Put plainly: Particle size for the 50th percentile of the cumulative volume distribution in Sprague-Dawley rat at 50 mg/kg, IM […]. The format is ADME, organism-based. The conditions noted are these: in vivo.
A further data set has as its system HeLa. Put plainly: Cytotoxicity against human HeLa cells assessed as reduction in cell viability at highest concentration measured after 3 days by ATPlite assay. The format is toxicity, cell-based. The conditions noted are these: 72 h, time 3 day.
Data set [18] in a line: Clearance in Sprague-Dawley rat at 2.5 mg/kg, iv by LC-MS/MS analysis. The conditions noted are these: in vivo. The format is ADME, organism-based.
Data set [19] in a line: Volume of distribution at steady state in Sprague-Dawley rat at 2.5 mg/kg, iv by LC-MS/MS analysis. The conditions noted are these: in vivo, read-out: Vdss. The format is ADME, organism-based.

For `CC(C)C(=O)N1CC2(C1)C(=O)N(Cc1nc3cc(Cl)ccc3n1CCCCF)c1cnccc12`, the microsomal CLint at 1 µM in data set [1] is less than 7.7 µL/min/mg. The bioavailability in data set [2] came out at 122%; in [8], 142%. Besides, the hepatocyte CLint at 1 µM in data set [3] was less than 1.2 µL/min/1e6 cells. For the same molecule, the “Particle size (D50)” value in the data set with Canis familiaris [4] is given as 5.43 um. The Vd in [5] was found to be 0.82 L/kg; in data set [13] it was 5.3 L/kg. For the same molecule, the clearance turned out to be 11.8 mL/min/kg in data set [6] and 26.3 mL/min/kg in [10]. The Ka in the data set on Canis familiaris [7] came to 0.033 h⁻¹; with Rattus norvegicus [15] it was 0.013 h⁻¹. In data set [9], this molecule came in with a solubility at 72 h of 361 µM (≈ 175 µg/mL). Also, in data set [11], the CHI was found to be 2.14. In data set [12], the pEC50 was 9.00. For the same molecule, in data set [14], the solubility thermodynamic at 24 h stood at 44 µg/mL (≈ 90.9 µM). In data set [16], the “protein-adjusted EC90” value worked out at 0.017 µg/mL. Moreover, the “Median particle size (D50)” value in the data set on Rattus norvegicus [17] is given as 9.11 um. The Activity result in the data set with HeLa was “Non-toxic”.

In the case of `O=C1N(Cc2nc3cc(Cl)ccc3n2CCCC(F)(F)F)c2cnccc2C12CN(S(=O)(=O)C1CC1)C2`, in data set [1], the microsomal CLint at 1 µM was less than 7.7 µL/min/mg. Further, the bioavailability amounted to 93% in [2] and 88% in data set [8]. Moreover, the hepatocyte CLint at 1 µM in data set [3] was less than 1.2 µL/min/1e6 cells. Also, the “Particle size (D50)” value with Canis familiaris [4] came out at 15.6 um. The results for the Vd in [5] and in data set [13] were 2.65 L/kg and 2.48 L/kg, respectively. The clearance in data set [6] stood at 0.99 mL/min/kg; in data set [10] it was 43.5 mL/min/kg. Further, the values for the Ka in the data set with Canis familiaris [7] and in the data set with Rattus norvegicus [15] were 0.01 h⁻¹ and 0.003 h⁻¹, respectively. The same molecule gave a solubility at 72 h in data set [9] of less than 0.13 µM. Further, the CHI in data set [11] is 2.81. In data set [12], the pEC50 is 9.37. Further, in data set [14], the solubility thermodynamic at 24 h is less than 0.1 µg/mL. The “protein-adjusted EC90” value in [16] stood at 0.0082 µg/mL. In the data set on Rattus norvegicus [17], the “Median particle size (D50)” value turned out to be 15.6 um. The Activity entry in the data set on HeLa is reported as “Non-toxic”.

With `CC(C)NC(=O)N1CC2(C1)C(=O)N(Cc1nc3cc(Cl)ccc3n1CCCC(F)(F)F)c1cnccc12`, the microsomal CLint at 1 µM in data set [1] is less than 7.7 µL/min/mg. In addition, the values for the bioavailability in [2] and in [8] were 90% and 107%, respectively. Further, the hepatocyte CLint at 1 µM in data set [3] was less than 1.2 µL/min/1e6 cells. The “Particle size (D50)” value in the data set on Canis familiaris [4] is on record as 5.03 um. In addition, the Vd in [5] was 1.66 L/kg; in [13], 1.94 L/kg. Moreover, the clearance is 14.6 mL/min/kg in data set [6] and 36.9 mL/min/kg in [10]. Moreover, the Ka with Canis familiaris [7] came out at 0.01 h⁻¹; in the data set on Rattus norvegicus [15], 0.005 h⁻¹. In data set [9], this molecule registered a solubility at 72 h of 11 µM (≈ 5.88 µg/mL). In [11], this molecule yielded a CHI of 2.39. Also, in data set [12], the pEC50 is 9.64. Besides, the solubility thermodynamic at 24 h in data set [14] was less than 0.1 µg/mL. The “protein-adjusted EC90” value in [16] was 0.0037 µg/mL. For the same molecule, the “Median particle size (D50)” value in the data set on Rattus norvegicus [17] is listed as 4.36 um. Also, in the data set on HeLa, the Activity result was “Non-toxic”.

As to `CC(C)(O)C(=O)N1CC2(C1)C(=O)N(Cc1nc3cc(Cl)ccc3n1CCCC(F)(F)F)c1ccccc12`, the microsomal CLint at 1 µM in data set [1] was less than 7.7 µL/min/mg. In addition, the bioavailability in [2] was determined as 102%; in [8], 85%. In addition, the hepatocyte CLint at 1 µM in data set [3] is less than 1.2 µL/min/1e6 cells. In the data set on Canis familiaris [4], the “Particle size (D50)” value stood at 1.03 um. Further, the Vd in [5] was found to be 1.77 L/kg; in [13], 2.78 L/kg. The clearance was found to be 3.56 mL/min/kg in [6] and 9.3 mL/min/kg in data set [10]. The Ka was 0.003 h⁻¹ with Canis familiaris [7] and 0.001 h⁻¹ in the data set on Rattus norvegicus [15]. Besides, in data set [9], the concentration in solution (solubility at 72 h) came to 0.74 µM (≈ 0.396 µg/mL). The CHI in [11] stood at 2.84. For the same molecule, in data set [12], the pEC50 was 9.00. Also, the solubility thermodynamic at 24 h in [14] was less than 0.1 µg/mL. Moreover, the “protein-adjusted EC90” value in data set [16] worked out at 0.031 µg/mL. For the same molecule, in the data set on Rattus norvegicus [17], the “Median particle size (D50)” value turned out to be 1.02 um. Besides, in the data set on HeLa, the Activity entry is “Non-toxic”.

For `CC(C)NC(=O)N1CC2(C1)C(=O)N(Cc1nc3cc(Cl)ccc3n1CCCC#N)c1ccccc12`, the microsomal CLint at 1 µM in data set [1] was less than 7.7 µL/min/mg. For the same molecule, the results for the bioavailability in data set [2] and in data set [8] were 51% and 21%, respectively. In addition, the hepatocyte CLint at 1 µM in [3] came out at 1.5 µL/min/1e6 cells. Further, the “Particle size (D50)” value in the data set with Canis familiaris [4] was 5.34 um. In addition, the Vd was determined as 0.56 L/kg in data set [5] and 3.2 L/kg in data set [19]. In addition, the values for the clearance in [6] and in data set [18] were 4.9 mL/min/kg and 21 mL/min/kg, respectively. The Ka with Canis familiaris [7] came to 0.001 h⁻¹; in the data set on Rattus norvegicus [15], 0 h⁻¹. Besides, the solubility at 72 h in data set [9] was less than 0.25 µM. The CHI in data set [11] is reported as 2.37. Moreover, the negative logarithm of the EC50 (pEC50) in data set [12] is 9.24. For the same molecule, the solubility thermodynamic at 24 h in data set [14] was less than 0.1 µg/mL. Further, in data set [16], the “protein-adjusted EC90” value amounted to 0.06 µg/mL. For the same molecule, in the data set on Rattus norvegicus [17], the “Median particle size (D50)” value is reported as 5.48 um. For the same molecule, in the data set on HeLa, the Activity entry is recorded as “Non-toxic”.
